Where a name gives a salt, the structure may show the parent alone. Read-outs that look alike come from different tables or passages of the source.

For series [1], the system named is SKOV3 ovarian cancer cells. The series can be described thus: Phototoxicity of chlorin e6 analogues in SKOV3 cells after 652 nm laser activation (AlamarBlue viability). The class given is cell-based, Human. Particulars: for IC90: 24 h uptake, 652 nm laser 50 mW/cm^2 for 5 mins (15 J/cm^2), viability 24 h later; for Phototoxicity in vitro compared with compounds 1, 2 and 8: comparison in words. Here is the method:
Samples were stored at 4° C. protected from light.
All data are shown as mean±SD (where appropriate).
To test for phototoxicity, cells incubated with chlorin e6 analogues (0-10 μM in DMSO) had culture media replaced after 24 hours (as above) and were then exposed to a 652 nm laser (Invion) with laser density at 50 mW/cm^2 for 5 mins (total 15 J/cm^2). Following activation, cells were cultured for a further 24 hours. Media was then replaced with fresh media containing AlamarBlue, and % viable cells remaining assessed as above. Controls included cells treated with chlorin e6 analogues but not activated by laser light; cells without chlorin e6 analogue treatment but with laser light; and untreated controls. All measurements were made in quadruplicate.
To evaluate the therapeutic potential of chlorin e6 analogues, the therapeutic index (TI) was calculated. TI provides a quantitative measurement to describe relative drug safety, by comparing the drug concentration required for desirable effects versus the concentration resulting in undesirable off-target toxicity. TI was calculated using phototoxicity IC90 vs dark toxicity IC10.
(The colour change of resazurin is a common sign of viable cells or microbes.)

The subject of series [2] is SKOV3 ovarian cancer cells. Particulars: human, 24 h.
Description: (§1) Photosensitizers (e.g. chlorin e6 analogue, chlorin e4 disodium (provided by Advanced Molecular Technologies, Scoresby) or Talaporfin sodium (purchased from Focus Bioscience cat #HY-16477-5MG)) were resuspended in 100% dimethylsulfoxide (DMSO) at a concentration of 5.5 mM. Samples were stored at 4° C. protected from light.
(§2) For in vitro experiments, photosensitizers (stock solution 5.5 mM in 100% DMSO) were diluted 1:100 in concentrated excipient solution (final 55 M photosensitizer in 10% w/v Kollidon-12, 42.4% w/v polysorbate 80, 0.6% w/v citric acid anhydrous, 40% w/v ethanol, 1.0% DMSO). Serial dilutions were prepared in cell culture media (Dulbecco's Modified Eagle Medium/Nutrient Mixture F-12 (DMEM/F-12)) supplemented with 10% v/v Fetal Bovine Serum, 100 U/mL penicillin, 100 μg/mL streptomycin and the same excipient solution at a constant 1:55 dilution.
(§3) Human ovarian cancer cell line SKOV3 (ATCC #HTB-77) was maintained in Dulbecco's Modified Eagle Medium/Nutrient Mixture F-12 (DMEM/F-12), supplemented with 10% v/v Fetal Bovine Serum, 100 U/mL penicillin and 100 g/mL streptomycin. Monolayer cultures were grown in a humidified incubator at 37° C. with 5% CO2. Once cells had reached ~80% confluence, spent media was replaced with media containing photosensitizer at the required concentration and cells were incubated for the desired period of time to allow photosensitizer uptake.
(§4) Spectral absorbance and viability measurements were normalized in the range 0-100%, with a minimum of 0 and a maximum value determined from the dataset. Dose response was determined using a sigmoidal four-point non-linear regression with variable slope, and IC10 or IC90 calculated for each compound. All data are shown as mean±SD (where appropriate).
(§5) SKOV3 cells were seeded in 96-well black wall plates (Greiner #655090) at a cell density of 5000 cells in 100 μl culture medium per well. On reaching 60% confluence, media was aspirated and replaced with fresh media containing the relevant chlorin e6 analogue from 0-100 μM in DMSO. Cells were incubated for a further 24 hours, allowing uptake of chlorin e6 analogues.
(§6) To test for inherent cytotoxicity (i.e. “dark toxicity”) of the chlorin e6 analogues, the culture media was replaced after 24 hours with fresh media containing 10% (v/v) AlamarBlue Cell Viability Reagent (ThermoFisher) and cells incubated at 37° C. for 6 hours. Untreated cells were used as a control. Fluorescence (Ex 555 nm/Em 596 nm) was measured using a Cytation 3 Cell Imaging Multi-Mode Reader (Biotek), and cytotoxicity assessed according to the % viable cells remaining. All measurements were made in quadruplicate.
(§7) The phototoxicity and inherent cytotoxicity (i.e. “dark toxicity”) of chlorin e6 analogues were assessed as previously using SKOV3 ovarian cancer cells.
Series [3] concerns SKOV3 ovarian cancer cells. Put plainly: Inherent cytotoxicity (dark toxicity) in SKOV3 cells (AlamarBlue viability). The note with it: 24 h incubation, no light activation.
Description: as §1, §2, §3, §4, §5, §6, §7
A short description of series [4]: Stability of chlorin e6 analogue salts in aqueous solution (HPLC purity over time). The series is classed as physicochemical. The note with it: 30° C.; for Stability: aqueous solution, overall rating in words. Here is the method: Reaction solutions were prepared by dissolving 2-3 mg of the respective chlorin e6 analogue salt in 5 mL of distilled deionised water in a 50 mL test tube fitted with a lid. The solutions were stirred in the test tubes at 30° C. Air (oxygen) and ambient light so were not excluded. Sample HPLC analyses were performed at 0.5, 4 or 66 hours (unless indicated otherwise). The aim was to look for degradation over time.
• Mobile Phase: A=0.05% w/v phosphoric acid in distilled water; B=acetonitrile • Injection volume: 5 μL • HPLC run length: 35 minutes • Detection wavelength: 406 nm • Column temperature: 40° C.

Where [5] appears, read: Homo sapiens, SK-OV-3, light or radiation study.
[6] abbreviates: distilled deionised water, air and ambient light not excluded, Disodium Salt.
Setting [7] is: distilled deionised water, air and ambient light not excluded.

As for `C=Cc1c(C)c2cc3nc(c(CC(=O)N(C)CCC[P+](c4ccccc4)(c4ccccc4)c4ccccc4)c4[nH]c(cc5nc(cc1[nH]2)C(C)=C5CC)c(C)c4C(=O)OC)[C@@H](CCC(=O)OC)[C@@H]3C` [Compound 8, Chlorin e6 N-(methylaminopropyl)triphenylphosphonium Bromide Dimethyl Ester], the IC90 (commonly the point of the concentration-response curve where the effect stands at 90%) in series [1] (setting [5]) was 0.00418 µM. Also, the “Dark toxicity μM (IC10)” value in series [2] turned out to be 1.032 µM.
For the compound `C=Cc1c(C)c2cc3nc(c(C)c4[nH]c(cc5nc(cc1[nH]2)C(C)=C5CC)c(C)c4C(=O)O)[C@@H](CCC(=O)O)[C@@H]3C` [Chlorin e4 disodium, reference compound], the “Dark toxicity μM (IC10)” value in series [3] is 40.23 µM. For the same compound, in series [1], it took 21.3 µM to reach the 90% level (IC90); the “Phototoxicity in vitro compared with compounds 1, 2 and 8” value is “substantially lower phototoxicity”.
In series [1] (setting [5]), `C=Cc1c(C)c2cc3nc(c(CC(=O)NCCCS[C@@H]4O[C@H](CO)[C@@H](O)[C@H](O)[C@H]4O)c4[nH]c(cc5nc(cc1[nH]2)C(C)=C5CC)c(C)c4C(=O)NCCCS[C@@H]1O[C@H](CO)[C@@H](O)[C@H](O)[C@H]1O)[C@@H](CCC(=O)NCCCS[C@@H]1O[C@H](CO)[C@@H](O)[C@H](O)[C@H]1O)[C@@H]3C` [Compound 2, chlorin e6 tris β-D-1-thioglucose propylamide conjugate 2] had an IC90 of 7.89 µM. Further, in series [2], the “Dark toxicity μM (IC10)” value is 167.50 µM.
For the compound `C=Cc1c(C)c2cc3nc(c(CC(=O)O)c4[nH]c(cc5nc(cc1[nH]2)C(C)=C5CC)c(C)c4C(=O)OC)[C@@H](CCC(=O)O)[C@@H]3C` [Compound 13, Chlorin e6 5-methyl Ester Disodium Salt], the Stability entry in series [4] is “Poor”. In series [4] (setting [6]), the “Purity by HPLC after 0.5 hours (%)” value is on record as 85.46%, the “Purity by HPLC after 4 hours (%)” value is on record as 81.54% and the “Purity by HPLC after 66 hours (%)” value amounted to 41.60%.
Turning to `C=Cc1c(C)c2cc3nc(c(CC(=O)O)c4[nH]c(cc5nc(cc1[nH]2)C(C)=C5CC)c(C)c4C(=O)OC)[C@@H](CCC(=O)O)[C@@H]3C` [Compound 20, Chlorin e6 5-methyl Ester bis(N-methyl-D-glucamine) Salt], the Stability result in series [4] is “Poor”. Further, in series [4] (setting [7]), the “Purity by HPLC after 0.5 hours (%)” value amounted to 81.39%, the “Purity by HPLC after 4 hours (%)” value was determined as 81.28% and the “Purity by HPLC after 66 hours (%)” value stood at 1.62%.
For `C=Cc1c(C)c2cc3nc(c(CC(=O)O)c4[nH]c(cc5nc(cc1[nH]2)C(C)=C5CC)c(C)c4C(=O)O)[C@@H](CCC(=O)O)[C@@H]3C` [Photodithiazine, reference compound] the same measures were “Poor”, 88.56%, 84.33% and 40.27%.
On to `C=Cc1c(C)c2cc3nc(c(CC(=O)O)c4[nH]c(cc5nc(cc1[nH]2)C(C)=C5CC)c(C)c4C(=O)OC)[C@@H](CCC(=O)O)[C@@H]3C` [Compound 12, Chlorin e6 5-methyl Ester Monosodium Mono(N-methyl-D-glucamine) Salt], for which the Stability result in series [4] was “Poor”. Further, in series [4] (setting [7]), the “Purity by HPLC after 0.5 hours (%)” value is reported as 83.73%, the “Purity by HPLC after 4 hours (%)” value is recorded as 81.10% and the “Purity by HPLC after 66 hours (%)” value came to 36.95%.
In the case of `C=Cc1c(C)c2cc3nc(c(CC(=O)OCC)c4[nH]c(cc5nc(cc1[nH]2)C(C)=C5CC)c(C)c4C(=O)O)[C@@H](CCC(=O)O)[C@@H]3C` [Compound 17, Chlorin e6 15-ethyl Ester Disodium Salt], the “Purity by HPLC after 66 hours (%)” value in series [4] (setting [6]) is reported as 76.69%. Besides, in series [4] (distilled deionised water, air and ambient light not excluded, after 2 hours), the “Purity by HPLC (%) after 2 hours” value was 77.60 (after %.
Regarding `C=Cc1c(C)c2cc3nc(c(CC(=O)N[C@@H](CC(=O)O)C(=O)O)c4[nH]c(cc5nc(cc1[nH]2)C(C)=C5CC)c(C)c4C(=O)O)[C@@H](CCC(=O)O)[C@@H]3C` [Talaporfin sodium, reference compound], in series [3], the “Dark toxicity μM (IC10)” value is 11.10 µM. In series [1], the “Phototoxicity in vitro compared with compounds 1, 2 and 8” value is recorded as “substantially lower phototoxicity”.
Regarding `C=Cc1c(C)c2cc3nc(c(CC(=O)O)c4[nH]c(cc5nc(cc1[nH]2)C(C)=C5CC)c(C)c4C(=O)NCCCS[C@@H]1O[C@H](CO)[C@@H](O)[C@H](O)[C@H]1O)[C@@H](CCC(=O)NCCCS[C@@H]1O[C@H](CO)[C@@H](O)[C@H](O)[C@H]1O)[C@@H]3C` [Compound 1, chlorin e6 bis β-D-1-thioglucose propylamide conjugate 1], in series [1] (setting [5]), the 90% effect level (IC90) was put at 6.48 µM. Moreover, the “Dark toxicity μM (IC10)” value in series [2] came out at 168.10 µM.
On to `C=Cc1c(C)c2cc3nc(c(CC(=O)OCC)c4[nH]c(cc5nc(cc1[nH]2)C(C)=C5CC)c(C)c4C(=O)O)[C@@H](CCC(=O)O)[C@@H]3C` [Compound 16, Chlorin e6 15-ethyl Ester bis(N-methyl-D-glucamine) Salt], for which the Stability result in series [4] is reported as “Good”. In series [4] (setting [7]), the “Purity by HPLC after 66 hours (%)” value worked out at 95.34%.
For `C=Cc1c(C)c2cc3nc(c(CC(=O)N(C)CCCC)c4[nH]c(cc5nc(cc1[nH]2)C(C)=C5CC)c(C)c4C(=O)O)[C@@H](CCC(=O)O)[C@@H]3C` [Compound 11, Chlorin e6 N-methylbutylamine bis(N-methyl-D-glucamine) Salt], in series [4], the Stability entry was “Good”. Also, in series [4] (setting [7]), the “Purity by HPLC after 0.5 hours (%)” value came out at 94.15% and the “Purity by HPLC after 4 hours (%)” value was 93.94%. In addition, the “Purity by HPLC (%) after 7 days” value in series [4] (distilled deionised water, air and ambient light not excluded, after 7 days) is 93.93 (after %.

The record behind these values is patent US20260191962A1, “NOVEL CHLORIN E6 ANALOGUES” (RMW CHO Group Limited, priority 2022, published 2026).
